ChEMBL document CHEMBL1142601, “Biphenyl glycosides from the fruit of Pyracantha fortuneana” (J Nat Prod, 2006)

Target: T1, Tyrosinase (Homo sapiens, UniProt P14679)
T1 sequence (P14679 whole entry): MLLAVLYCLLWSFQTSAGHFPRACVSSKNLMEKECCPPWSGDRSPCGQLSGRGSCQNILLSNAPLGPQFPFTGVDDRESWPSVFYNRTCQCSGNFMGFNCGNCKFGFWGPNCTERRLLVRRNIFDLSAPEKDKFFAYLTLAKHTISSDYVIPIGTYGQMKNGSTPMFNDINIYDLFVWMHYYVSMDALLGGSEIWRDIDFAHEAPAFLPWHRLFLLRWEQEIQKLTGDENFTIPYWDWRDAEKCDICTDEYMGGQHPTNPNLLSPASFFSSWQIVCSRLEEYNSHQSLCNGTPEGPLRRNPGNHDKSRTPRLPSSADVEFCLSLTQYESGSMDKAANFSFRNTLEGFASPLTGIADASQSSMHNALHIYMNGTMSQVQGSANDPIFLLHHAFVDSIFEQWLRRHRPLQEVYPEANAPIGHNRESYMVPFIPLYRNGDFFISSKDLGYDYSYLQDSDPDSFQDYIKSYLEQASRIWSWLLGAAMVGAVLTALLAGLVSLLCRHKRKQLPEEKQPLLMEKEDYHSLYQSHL
Assay: Inhibition of tyrosinase

| SMILES | IC50 |
| --- | --- |
| COc1cc(-c2ccccc2O[C@@H]2O[C@H](CO)[C@@H](O)[C@H](O)[C@H]2O)cc(OC)c1O [FORTUNEANOSIDE C] | 450 µM |
| COc1cc(-c2cccc(O[C@@H]3O[C@H](CO)[C@@H](O)[C@H](O)[C@H]3O)c2O)cc(OC)c1O [FORTUNEANOSIDE D] | 70 µM |
| COc1ccccc1-c1cc(OC)c(O)c(OC)c1O[C@@H]1O[C@H](CO)[C@@H](O)[C@H](O)[C@H]1O [FORTUNEANOSIDE B] | 2210 µM |
| COc1cc(-c2ccc(O[C@@H]3O[C@H](CO)[C@@H](O)[C@H](O)[C@H]3O)c(O)c2)cc(OC)c1O [FORTUNEANOSIDE E] | 140 µM |
